Measured values: patent publication US20250320496A1, “MODULATION OF ABCB11 GENE TRANSCRIPTION USING ANTISENSE OLIGONUCLEOTIDES TARGETING REGULATORY RNAS” (CAMP4 Therapeutics Corporation, priority 2022, published 2025)
Strand notation (5' to 3'): a small letter for the sugar, then the base; units joined by * are phosphorothioate-linked, units joined directly phosphodiester-linked; [ ] holds rarer units or linkages, { } end groups; capitals alone tell only the bases. e = 2'-O-(2-methoxyethyl) (MOE); l = locked nucleic acid (LNA); [5mC] = 5-methylcytosine; d = 2'-deoxy (DNA)

tested on: human ABCB11 mRNA; experiment: ASO treatment of primary human hepatocytes (PHH), ABCB11 mRNA by RT-qPCR normalized to B2M; type: cell-based; conditions: primary human hepatocytes, 5 μM ASO, normalized to untreated PHHs (UNT)
Summary of the method: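 ABCB11 mRNA was quantified by Taqman RT-qPCR relative to B2M and expressed as fold over untreated cells. Cells were cryopreserved primary human hepatocytes given ASO in Matrigel-supplemented medium 4 h after plating, at 1.25, 2.5, 5 or 10 μM (5 μM for screening), and harvested after 72 hrs.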

Compared with “CO-7014 (antisense eA*eG*eT*eG*eA*eG*eG*e[5mC]*eA*eT*e[5mC]*eA*eG*eG*eT*eA*eA*eG*eT*eT*e[5mC]*e[5mC])”, “CO-7015 (antisense eA*eG*eT*eG*eA*dG*dG*d[5mC]*eA*dT*d[5mC]*dA*dG*eG*dT*dA*dA*eG*eT*eT*e[5mC]*e[5mC])” is lower in “ABCB11 mRNA FC (5 μM ASO vs. UNT)” value: 1.293 fold change for the first, 1.257 fold change for the second.

First: CO-7016 (antisense eA*eG*eT*eG*eA*lG*dG*d[5mC]*lA*dT*d[5mC]*dA*dG*lG*dT*dA*lA*eG*eT*eT*e[5mC]*e[5mC])
Second: CO-7017 (antisense eA*eA*eG*eT*eG*eA*eG*dG*d[5mC]*dA*dT*d[5mC]*dA*dG*dG*dT*dA*eA*eG*eT*eT*e[5mC]*e[5mC]*eT)
The “ABCB11 mRNA FC (5 μM ASO vs. UNT)” value of the first is higher: 1.278 fold change for the first, 1.182 fold change for the second.

Going from “CO-7018 (antisense eA*eA*eG*eT*eG*eA*eG*eG*e[5mC]*eA*eT*e[5mC]*eA*eG*eG*eT*eA*eA*eG*eT*eT*e[5mC]*e[5mC]*eT)” to “CO-7019 (antisense eA*eA*eG*eT*eG*dA*dG*eG*d[5mC]*dA*eT*d[5mC]*dA*eG*dG*dT*eA*dA*dG*eT*eT*e[5mC]*e[5mC]*eT)”, the “ABCB11 mRNA FC (5 μM ASO vs. UNT)” value rises from 1.249 fold change to 1.284 fold change.

Compared with “CO-7020 (antisense eA*eA*eG*eT*eG*dA*dG*lG*d[5mC]*dA*lT*d[5mC]*dA*lG*dG*dT*lA*dA*dG*eT*eT*e[5mC]*e[5mC]*eT)”, “CO-7022 (antisense eT*e[5mC]*eT*eG*eG*dA*dA*dA*dA*dT*dA*dA*dT*dG*d[5mC]*e[5mC]*eT*eT*eT*e[5mC])” is higher in “ABCB11 mRNA FC (5 μM ASO vs. UNT)” value: 1.133 fold change for the first, 1.224 fold change for the second.

Compared with “CO-7023 (antisense e[5mC]*eT*eT*eA*eT*e[5mC]*eT*eG*eG*eA*eA*eA*eA*eT*eA*eA*eT*eG*e[5mC]*e[5mC])”, “CO-7024 (antisense eG*e[5mC]*eT*eT*eA*eT*e[5mC]*eT*eG*eG*eA*eA*eA*eA*eT*eA*eA*eT*eG*e[5mC])” is higher in “ABCB11 mRNA FC (5 μM ASO vs. UNT)” value: 1.338 fold change for the first, 1.415 fold change for the second.

Compared with “CO-7025 (antisense eA*eG*eT*eG*eA*eG*e[5mC]*eT*eT*eA*eT*e[5mC]*eT*eG*eG*eA*eA*eA*eA*eT)”, “CO-7026 (antisense eA*e[5mC]*eA*eG*eT*eG*eA*eG*e[5mC]*eT*eT*eA*eT*e[5mC]*eT*eG*eG*eA*eA*eA)” is lower in “ABCB11 mRNA FC (5 μM ASO vs. UNT)” value: 1.259 fold change for the first, 1.158 fold change for the second.

First: CO-7027 (antisense e[5mC]*eG*eA*e[5mC]*eA*eG*eT*eG*eA*eG*e[5mC]*eT*eT*eA*eT*e[5mC]*eT*eG*eG*eA)
Second: CO-7028 (antisense eA*e[5mC]*e[5mC]*eG*eA*e[5mC]*eA*eG*eT*eG*eA*eG*e[5mC]*eT*eT*eA*eT*e[5mC]*eT*eG)
The “ABCB11 mRNA FC (5 μM ASO vs. UNT)” value of the first is lower: 1.304 fold change for the first, 1.49 fold change for the second.

Compared with “CO-7030 (antisense AGAATCGCTGTGGCAGTTAA; fully 2'-MOE, mixed PS/PO, 5-methylcytosine; listed as RNA; modified_base 1..20: mod_base = OTHER; note = Phosphorothioate linkage; note = 2'-O-(2-methoxyethyl) ribonucleotide; modified_base 6: mod_base = OTHER; note = 5-methyl cytidine; modified_base 8: mod_base)”, “CO-7031 (antisense eA*eA*eA*eG*eA*eA*eT*e[5mC]*eG*e[5mC]*eT*eG*eT*eG*eG*e[5mC]*eA*eG*eT*eT)” is lower in “ABCB11 mRNA FC (5 μM ASO vs. UNT)” value: 1.372 fold change for the first, 1.212 fold change for the second.

Going from “CO-7032 (antisense eA*e[5mC]*eA*eA*eA*eG*eA*eA*eT*e[5mC]*eG*e[5mC]*eT*eG*eT*eG*eG*e[5mC]*eA*eG)” to “CO-7033 (antisense eG*eA*eG*eA*e[5mC]*eA*eA*eA*eG*eA*eA*eT*e[5mC]*eG*e[5mC]*eT*eG*eT*eG*eG)”, the “ABCB11 mRNA FC (5 μM ASO vs. UNT)” value rises from 1.093 fold change to 1.316 fold change.

Compared with “CO-7034 (antisense eT*eT*eA*eG*eA*eG*eA*e[5mC]*eA*eA*eA*eG*eA*eA*eT*e[5mC]*eG*e[5mC]*eT*eG)”, “CO-7035 (antisense e[5mC]*eA*eT*eT*eT*dA*dG*dA*dG*dA*d[5mC]*dA*dA*dA*dG*eA*eA*eT*e[5mC]*eG)” is lower in “ABCB11 mRNA FC (5 μM ASO vs. UNT)” value: 1.097 fold change for the first, 1.047 fold change for the second.

First: CO-7036 (antisense eG*eT*eA*e[5mC]*eA*eT*eT*eT*eA*eG*eA*eG*eA*e[5mC]*eA*eA*eA*eG*eA*eA)
Second: CO-7037 (antisense e[5mC]*eT*eG*eT*eA*e[5mC]*eA*eT*eT*eT*eA*eG*eA*eG*eA*e[5mC]*eA*eA*eA*eG)
The “ABCB11 mRNA FC (5 μM ASO vs. UNT)” value of the first is lower: 1.129 fold change for the first, 1.136 fold change for the second.

First: CO-7038 (antisense eA*eA*e[5mC]*eT*eG*eT*eA*e[5mC]*eA*eT*eT*eT*eA*eG*eA*eG*eA*e[5mC]*eA*eA)
Second: CO-7040 (antisense eA*eA*eG*eA*eG*eG*eA*eA*eA*eG*eA*eA*e[5mC]*eT*eG*eG*e[5mC]*e[5mC]*eG*eG)
The “ABCB11 mRNA FC (5 μM ASO vs. UNT)” value of the first is lower: 1.189 fold change for the first, 1.267 fold change for the second.

Compared with “CO-7041 (antisense eG*eT*e[5mC]*eA*eA*eG*eA*eGeG*eA*eA*eA*eG*eA*eA*e[5mC]*eT*eG*eG*e[5mC])”, “CO-7042 (antisense e[5mC]*eT*eT*eG*eG*eT*e[5mC]*eA*eA*eG*eA*eG*eG*eA*eA*eA*eG*eA*eA*e[5mC])” is lower in “ABCB11 mRNA FC (5 μM ASO vs. UNT)” value: 1.15 fold change for the first, 1.132 fold change for the second.

First: CO-7043 (antisense eT*eT*eG*e[5mC]*eT*eT*eG*eG*eT*e[5mC]*eA*eA*eG*eA*eG*eG*eA*eA*eA*eG)
Second: CO-7044 (antisense eT*eT*eT*eT*eG*e[5mC]*eT*eT*eG*eG*eT*e[5mC]*eA*eA*eG*eA*eG*eG*eA*eA)
The “ABCB11 mRNA FC (5 μM ASO vs. UNT)” value of the first is higher: 1.1 fold change for the first, 0.943 fold change for the second.

First: CO-7045 (antisense eT*eG*eT*eT*eT*dT*dG*d[5mC]*dT*dT*dG*dG*dT*d[5mC]*dA*eA*eG*eA*eG*eG)
Second: CO-7046 (antisense eT*eG*eT*eG*eT*eT*eT*eT*eG*e[5mC]*eT*eT*eG*eG*eT*e[5mC]*eA*eA*eG*eA)
The “ABCB11 mRNA FC (5 μM ASO vs. UNT)” value of the first is lower: 1.112 fold change for the first, 1.243 fold change for the second.

“CO-7047 (antisense eG*eA*eG*eT*eT*eG*eT*eG*eT*eT*eT*eT*eG*e[5mC]*eT*eT*eG*eG*eT*e[5mC])” and “CO-7048 (antisense eT*eG*eG*eA*eG*eT*eT*eG*eT*eG*eT*eT*eT*eT*eG*e[5mC]*eT*eT*eG*eG)” are the same in “ABCB11 mRNA FC (5 μM ASO vs. UNT)” value: 1.175 fold change for the first, 1.175 fold change for the second.

First: CO-7050 (antisense eT*eT*eG*eG*eT*eT*e[5mC]*e[5mC]*e[5mC]*e[5mC]*e[5mC]*eT*eG*e[5mC]*eT*eG*eT*eG*e[5mC]*eT)
Second: CO-7051 (antisense eA*e[5mC]*e[5mC]*eT*eT*eG*eG*eT*eT*e[5mC]*e[5mC]*e[5mC]*e[5mC]*e[5mC]*eT*eG*e[5mC]*eT*eG*eT)
The “ABCB11 mRNA FC (5 μM ASO vs. UNT)” value of the first is lower: 1.026 fold change for the first, 1.201 fold change for the second.

Compared with “CO-7052 (antisense eT*e[5mC]*eA*e[5mC]*e[5mC]*eT*eT*eG*eG*eT*eT*e[5mC]*e[5mC]*e[5mC]*e[5mC]*e[5mC]*eT*eG*e[5mC]*eT)”, “CO-7053 (antisense e[5mC]*e[5mC]*eT*e[5mC]*eA*e[5mC]*e[5mC]*eT*eT*eG*eG*eT*eT*e[5mC]*e[5mC]*e[5mC]*e[5mC]*e[5mC]*eT*eG)” is higher in “ABCB11 mRNA FC (5 μM ASO vs. UNT)” value: 1.046 fold change for the first, 1.145 fold change for the second.
